pIC50: −log10 of the molar value. Where “and” joins values, the source holds several entries; their conditions need not be identical. Identical values can stand only once. Like-named read-outs stand apart in the source and are kept apart here.
Key:
[1] = Log D determination (octanol/buffer); assay type: physicochemical; conditions: phosphate buffer at pH 7.4
Description: (§1) For the DMPK studies of the compound 8a-d we used rat as well as human plasmas. Rat plasma was purchased from Hylasco Biotechnology Pvt. Ltd.™ Hyderabad, India. We have not performed any in vivo experiments for this manuscript neither for animals nor for humans. […] Also please note the blood plasma was obtained from the blood of Dr Srinivas R Maddi, who donated it and is the co-author of this article. The DMPK studies were supplemented by kinetic solubility, Log p and Log D determinations, PAMPA permeability, Metabolic and Plasma stability in rat and human, and finally the plasma folding in rat and human. A thorough discussion of each step is mentioned in the supplementary information.
20 µL of IDO1/TDO2 protein (1µg/ml concentration) was added and incubates for 10 min. After that 20 µL of 2 mM L-tryptophan was added and then treated with different test compounds concentration (10 µM, 5 µM, 1 µM, 500 nM, 250 nM). The plate was then sealed well for 2hr incubation process at 37°C. […] The 100 µL of supernatant was transferred in fresh 96 well plate and treated with 100 µL of freshly prepared 2% Ehlrich reagent which was then analyzed by absorbance plate reader at 492 nm to measure the extent of kynurenine formation. […] The IC50 values were calculated in triplicate by using GraphPadPrism Software (GraphPadPrism. Version 5.01 program).22, 23 […]
Log P determination: The partition coefficient was determined by adding compounds to 2 mL deep well plate containing Octanol/water mixture and vortexed the plate for 2 hours at 1200 rpm on a plate shaker. […] Octanol and buffer layers were analysed by HPLC -UV by adjusting the needle height for each Octanol and buffer and the amount of compound distributed i nto each phase was calculated
Log D determination: The distribution coefficient was determined by adding compounds to 2 mL deep well plate containing Octanol/Buffer mixture and vortexed the plate for 2 hours at 1200 rpm on a plate shaker. […]
adjusting the needle height for each Octanol and buffer and the amount of compound distributed into each phase was calculated. […]

[2] = biological target: T1, hIDO1 (ferric-IDO1 and deoxy ferrous-IDO1) (Homo sapiens, UniProt P14902); assay: UV-Vis absorption study of ligand binding to IDO1 (Soret band); conditions: ligand 25 µM, IDO1 1 µM, pH 6.5; 414 nm without ligand
T1 construct: purchased Biovision P1096
T1 sequence (P14902 whole entry): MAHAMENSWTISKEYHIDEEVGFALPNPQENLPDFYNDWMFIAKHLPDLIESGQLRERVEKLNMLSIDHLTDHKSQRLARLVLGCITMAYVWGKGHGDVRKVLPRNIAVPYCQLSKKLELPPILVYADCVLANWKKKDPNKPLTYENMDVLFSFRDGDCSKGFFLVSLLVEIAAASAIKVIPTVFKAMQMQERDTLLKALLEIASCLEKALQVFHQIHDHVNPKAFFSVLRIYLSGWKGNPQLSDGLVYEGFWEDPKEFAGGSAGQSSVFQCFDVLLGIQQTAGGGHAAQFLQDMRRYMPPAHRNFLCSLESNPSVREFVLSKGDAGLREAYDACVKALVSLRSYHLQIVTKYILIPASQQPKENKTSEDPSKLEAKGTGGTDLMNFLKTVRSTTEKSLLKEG
Procedure: All the measurements of binding of compound and enzyme were recorded at room temperature using an Agilent Cary 8454 UV-Vis diode array spectrophotometer with 1 cm light path. The experiments were performed in 50 mM potassium phosphate buffer pH- 6.5 with IDO1 protein concentration of 1 µM and compound concentration of 25 µM was incubate for 3 h at 37°C. The deoxy-form of protein was prepared by pre-purged with nitrogen gas and adding […] (∼5 fold excess) in protein with potassium phosphate system.

[3] = Metabolic stability in dog liver microsomes; assay type: in vitro ADME
[4] = biological target: T2, recombinant protein of human IDO1 enzyme (Homo sapiens, UniProt P14902); assay: IDO1 enzymatic assay in vitro (kynurenine formation, absorbance 492 nm); assay type: biochemical; conditions: for pIC50: read-out: IC50 against IDO1
T2 construct: purchased Biovision P1096
T2 sequence (P14902 whole entry): as above
Procedure: The recombinant human IDO/TDO protein were purchased from Biovision (Catalog no.: P1096 human recombinant IDO1 and CSB-YP023351HU human recombinant TDO2). All the other HPLC grade solvent were purchased from Merck Pvt. Ltd. The IDO/TDO assays were performed according to the reported procedures.1 and 2, the details of which is mentioned in the SI.
20 µL of IDO1/TDO2 protein (1µg/ml concentration) was added and incubates for 10 min. After that 20 µL of 2 mM L-tryptophan was added and then treated with different test compounds concentration […]
The plate was then sealed well for 2hr incubation process at 37°C. After incubation, 40 µL of 30% TCA solution was added and again incubated for 15 min at 60 °C, the samples were centrifuged for 15 min at 13000 rpm at 4 °C. The 100 µL of supernatant was transferred in fresh 96 well plate and treated with 100 µL of freshly prepared 2% Ehlrich reagent which was then analyzed by absorbance plate reader at 492 nm to measure the extent of kynurenine formation. The DMSO content in the sample was 0.005 %. The final concentration of the compound in deep well plate was 5 µM. The IC50 values were calculated in triplicate by using GraphPadPrism […]
1. Water was substituted with L-tryphtophan
2. Water was substituted with L-tryhtophan and rhIDO/ rhTDO protein.
A = IDO activity in presence of inhibitor

PAMPA permeability = assay type: in vitro ADME; conditions: for Papp at 5 h, 100 µM: phosphate buffer at pH 7.4
Description: as §1, with “information. […]” for “information.”
PAMPA permeability: PAMPA permeability was determined by addition of the compounds to the donor wells at 100µM concentration in a total volume of 300µL in triplicates. The acceptor wells were filled with 200µL of phosphate buffered saline, pH 7.4, while maintaining 5% DMSO concentration on both sides. The plates were sandwiched and incubated for 5hours at room temperature. After incubation, 150µL of the sample from both donor and receiver wells was collected and centrifuged at […]
4000rpm for 20 minutes. […]

[5] = recombinant human IDO1, dose response study

Compound | logD [1] | Soret band of deoxy ferrous-IDO1 in presence of ligand [2] | Dog liver microsomal stability % QH (hepatic extraction ratio) [3] [%] | Percentage inhibition of IDO1 ([4]; 5 μM concentration of compound, 5 µM) [%] | inhibition at 5 µM ([4]; 5 μM concentration of compound, read-out: Percentage inhibition of IDO1) [%] | pIC50 [4, 5] | Permeability (PAMPA permeability) | Papp at 5 h, 100 µM (PAMPA permeability) [×10⁻⁶ cm/s] | Selectivity for IDO over TDO ([4]; IDO vs TDO) | pIC50 ([4]; recombinant human IDO1)
CC(=O)NCCc1c(C(=O)c2cc(C(F)(F)F)cc(C(F)(F)F)c2)[nH]c2ccccc12 [8a] | 1.32 | 407 nm and 430 nm | 69 | 37 | ~40 | 5.84 | very good | 6.8 |  | 
CC(=O)NCCc1c(C(=O)c2ccc([N+](=O)[O-])cc2)[nH]c2ccccc12 [8d] | 1.51 | 407 nm | 39 |  |  |  | very good | 15.4 | reasonable selectivity | 6.74
COC(=O)NCCc1c(C(=O)c2ccccc2)[nH]c2ccccc12 [8e] | 2.95 | 407 nm | 67 |  |  | 5.82 | very good | 32.3 |  | 
